Measurements reported in the supplement of paper PMC11208160.

Test: recombinant barcode read abundance after kanamycin selection (control-corrected) (log10(CPM+1)); higher = more efficient recombination; sequences stand for … in AGTGCAGAGAAAATCGGCCAGTTTTCTCTGCCTGCAGTCCGCATGCCGT…ATTTATGCAGCGGACTGCCTTTCTCCCAAAGTGATAAACCGGACAGTATCATGGACCGGTTTTCCCGGTAATCCGTATTTGCAAGGTTGGTTTCACT; site = the 11-nt target
Procedure, shortened: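 A vector carrying a T7-inducible recombinase and the last 73 bp of the bridge RNA received, by Gibson cloning, oligos encoding a promoter, target, barcode and the first 104 bridge RNA bases under J23119. The pooled constructs entered E. coli together with a donor plasmid by electroporation. Selection used chloramphenicol/ampicillin/kanamycin with 0.1 mM IPTG, with chloramphenicol/ampicillin LB agar as the control, each in two replicates. Recombination efficiency is the averaged, control-corrected counts-per-million of barcodes at recombinant junctions, reported as log10(CPM+1).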

Row | Sequence | recombinant barcode read abundance (log10)
1 | AGTCTTATATGGGTTCTAACCTGTTGCCATA [AGTCTTACTTG_LTGcore_TA_RTGcore_TA] (site AGTCTTACTTG) (LTG core: TA, RTG core: TA) | 0.153
2 | GCGCGACCTTGGGTTCTAACCTGTTGCTTGC [GCGCGACCTAA_LTGcore_CT_RTGcore_GC] (site GCGCGACCTAA) (LTG core: CT, RTG core: GC) | 0.0896
3 | CGCGCCCCATGGGTTCTAACCTGTTGCGGTG [CGCGCCCCTCC_LTGcore_CA_RTGcore_CA] (site CGCGCCCCTCC) (LTG core: CA, RTG core: CA) | 0.162
4 | AGGAGGTAATGGGTTCTAACCTGTTGCCTTT [AGGAGGTCTAG_LTGcore_AA_RTGcore_AA] (site AGGAGGTCTAG) (LTG core: AA, RTG core: AA) | 0.0693
5 | AAACAGTCTTGGGTTCTAACCTGTTGCCTTG [AAACAGTCTAG_LTGcore_CT_RTGcore_CA] (site AAACAGTCTAG) (LTG core: CT, RTG core: CA) | 1.28
6 | AGGAGGTCTTGGGTTCTAACCTGTTGCCTCT [AGGAGGTCTAG_LTGcore_CT_RTGcore_AG] (site AGGAGGTCTAG) (LTG core: CT, RTG core: AG) | 1.02
7 | AAACACACTTGGGTTCTAACCTGTTGCCTAT [AAACACACTAG_LTGcore_CT_RTGcore_AT] (site AAACACACTAG) (LTG core: CT, RTG core: AT) | 0.39
8 | TAAGAATCTTGGGTTCTAACCTGTTGCCTTT [TAAGAATCTAG_LTGcore_CT_RTGcore_AA] (site TAAGAATCTAG) (LTG core: CT, RTG core: AA) | 0.421
9 | ACGGGACCTTGGGTTCTAACCTGTTGCAGGC [ACGGGACCTCT_LTGcore_CT_RTGcore_GC] (site ACGGGACCTCT) (LTG core: CT, RTG core: GC) | 0.944
10 | CGCGCCCCATGGGTTCTAACCTGTTGCGGAG [CGCGCCCCTCC_LTGcore_CA_RTGcore_CT] (site CGCGCCCCTCC) (LTG core: CA, RTG core: CT) | 0.303
11 | CGGTCCCTTTGGGTTCTAACCTGTTGCCAAA [CGGTCCCCTTG_LTGcore_TT_RTGcore_TT] (site CGGTCCCCTTG) (LTG core: TT, RTG core: TT) | 0.0728
12 | GGCTCCCGGTGGGTTCTAACCTGTTGCGGAG [GGCTCCCCTCC_LTGcore_GG_RTGcore_CT] (site GGCTCCCCTCC) (LTG core: GG, RTG core: CT) | 0.0853
13 | TAAGAATATTGGGTTCTAACCTGTTGCCTAT [TAAGAATCTAG_LTGcore_AT_RTGcore_AT] (site TAAGAATCTAG) (LTG core: AT, RTG core: AT) | 0.141
14 | AGGCGGTCTTGGGTTCTAACCTGTTGCTTTC [AGGCGGTCTAA_LTGcore_CT_RTGcore_GA] (site AGGCGGTCTAA) (LTG core: CT, RTG core: GA) | 0.389
15 | GCGCGACCATGGGTTCTAACCTGTTGCTTAG [GCGCGACCTAA_LTGcore_CA_RTGcore_CT] (site GCGCGACCTAA) (LTG core: CA, RTG core: CT) | 0.422
16 | GGACACCTGTGGGTTCTAACCTGTTGCCTCA [GGACACCCTAG_LTGcore_TG_RTGcore_TG] (site GGACACCCTAG) (LTG core: TG, RTG core: TG) | 0.15
17 | GGGAGCCTCTGGGTTCTAACCTGTTGCTGAG [GGGAGCCCTCA_LTGcore_TC_RTGcore_CT] (site GGGAGCCCTCA) (LTG core: TC, RTG core: CT) | 0.0348
18 | AGGCCTCGCTGGGTTCTAACCTGTTGCCTAG [AGGCCTCCTAG_LTGcore_GC_RTGcore_CT] (site AGGCCTCCTAG) (LTG core: GC, RTG core: CT) | 0.224
19 | AGTCTTACATGGGTTCTAACCTGTTGCCATG [AGTCTTACTTG_LTGcore_CA_RTGcore_CA] (site AGTCTTACTTG) (LTG core: CA, RTG core: CA) | 0.21
20 | GAGGCCTCTTGGGTTCTAACCTGTTGCCATC [GAGGCCTCTTG_LTGcore_CT_RTGcore_GA] (site GAGGCCTCTTG) (LTG core: CT, RTG core: GA) | 0.252
21 | GGACACCTTTGGGTTCTAACCTGTTGCCTAG [GGACACCCTAG_LTGcore_TT_RTGcore_CT] (site GGACACCCTAG) (LTG core: TT, RTG core: CT) | 0.0765
22 | GAGCCCATGTGGGTTCTAACCTGTTGCCTAG [GAGCCCACTAG_LTGcore_TG_RTGcore_CT] (site GAGCCCACTAG) (LTG core: TG, RTG core: CT) | 0.0858
23 | TGTATTCCTTGGGTTCTAACCTGTTGCCTTC [TGTATTCCTAG_LTGcore_CT_RTGcore_GA] (site TGTATTCCTAG) (LTG core: CT, RTG core: GA) | 0.0942

Row | Sequence | recombinant barcode read abundance (log10)
24 | AGGCCTCCGTGGGTTCTAACCTGTTGCCTAG [AGGCCTCCTAG_LTGcore_CG_RTGcore_CT] (site AGGCCTCCTAG) (LTG core: CG, RTG core: CT) | 0.0631
25 | AGGCCTCTATGGGTTCTAACCTGTTGCCTTA [AGGCCTCCTAG_LTGcore_TA_RTGcore_TA] (site AGGCCTCCTAG) (LTG core: TA, RTG core: TA) | 0.0149
26 | GAGGCCTCTTGGGTTCTAACCTGTTGCCACA [GAGGCCTCTTG_LTGcore_CT_RTGcore_TG] (site GAGGCCTCTTG) (LTG core: CT, RTG core: TG) | 0.453
27 | CATATTACCTGGGTTCTAACCTGTTGCCTGG [CATATTACTAG_LTGcore_CC_RTGcore_CC] (site CATATTACTAG) (LTG core: CC, RTG core: CC) | 0.638
28 | GGGAGCCTTTGGGTTCTAACCTGTTGCTGAA [GGGAGCCCTCA_LTGcore_TT_RTGcore_TT] (site GGGAGCCCTCA) (LTG core: TT, RTG core: TT) | 0.11
29 | GAGCCCAGATGGGTTCTAACCTGTTGCCTAG [GAGCCCACTAG_LTGcore_GA_RTGcore_CT] (site GAGCCCACTAG) (LTG core: GA, RTG core: CT) | 0.163
30 | GGGAGCCTCTGGGTTCTAACCTGTTGCTGGA [GGGAGCCCTCA_LTGcore_TC_RTGcore_TC] (site GGGAGCCCTCA) (LTG core: TC, RTG core: TC) | 0.0883
31 | GCGCGACGATGGGTTCTAACCTGTTGCTTAG [GCGCGACCTAA_LTGcore_GA_RTGcore_CT] (site GCGCGACCTAA) (LTG core: GA, RTG core: CT) | 0.0201
32 | TAAGAATCTTGGGTTCTAACCTGTTGCCTGA [TAAGAATCTAG_LTGcore_CT_RTGcore_TC] (site TAAGAATCTAG) (LTG core: CT, RTG core: TC) | 0.145
33 | GGCTCCCCTTGGGTTCTAACCTGTTGCGGAC [GGCTCCCCTCC_LTGcore_CT_RTGcore_GT] (site GGCTCCCCTCC) (LTG core: CT, RTG core: GT) | 0.0822
34 | CGAGCCCCCTGGGTTCTAACCTGTTGCTGAG [CGAGCCCCTCA_LTGcore_CC_RTGcore_CT] (site CGAGCCCCTCA) (LTG core: CC, RTG core: CT) | 0.805
35 | GAGGCCTCGTGGGTTCTAACCTGTTGCCAAG [GAGGCCTCTTG_LTGcore_CG_RTGcore_CT] (site GAGGCCTCTTG) (LTG core: CG, RTG core: CT) | 0.218
36 | ATGTCCCCTTGGGTTCTAACCTGTTGCTCCA [ATGTCCCCTGA_LTGcore_CT_RTGcore_TG] (site ATGTCCCCTGA) (LTG core: CT, RTG core: TG) | 0.0151
37 | GGGCGGATCTGGGTTCTAACCTGTTGCGGAG [GGGCGGACTCC_LTGcore_TC_RTGcore_CT] (site GGGCGGACTCC) (LTG core: TC, RTG core: CT) | 0.798
38 | GCGCGACCCTGGGTTCTAACCTGTTGCTTAG [GCGCGACCTAA_LTGcore_CC_RTGcore_CT] (site GCGCGACCTAA) (LTG core: CC, RTG core: CT) | 0.907
39 | TCTACCCAGTGGGTTCTAACCTGTTGCTGAG [TCTACCCCTCA_LTGcore_AG_RTGcore_CT] (site TCTACCCCTCA) (LTG core: AG, RTG core: CT) | 0.467
40 | CGCGCCCCGTGGGTTCTAACCTGTTGCGGCG [CGCGCCCCTCC_LTGcore_CG_RTGcore_CG] (site CGCGCCCCTCC) (LTG core: CG, RTG core: CG) | 0
41 | GGTGCCCTCTGGGTTCTAACCTGTTGCCGAG [GGTGCCCCTCG_LTGcore_TC_RTGcore_CT] (site GGTGCCCCTCG) (LTG core: TC, RTG core: CT) | 0.0654
42 | TCGCGACCTTGGGTTCTAACCTGTTGCCGGA [TCGCGACCTCG_LTGcore_CT_RTGcore_TC] (site TCGCGACCTCG) (LTG core: CT, RTG core: TC) | 0.26
43 | TAGAGGGCTTGGGTTCTAACCTGTTGCGGTT [TAGAGGGCTCC_LTGcore_CT_RTGcore_AA] (site TAGAGGGCTCC) (LTG core: CT, RTG core: AA) | 0.0916
44 | ATGCTTTGATGGGTTCTAACCTGTTGCCTAG [ATGCTTTCTAG_LTGcore_GA_RTGcore_CT] (site ATGCTTTCTAG) (LTG core: GA, RTG core: CT) | 0.229
45 | CGCGCCCCCTGGGTTCTAACCTGTTGCGGGG [CGCGCCCCTCC_LTGcore_CC_RTGcore_CC] (site CGCGCCCCTCC) (LTG core: CC, RTG core: CC) | 0.117
